Test system: Aurora-A in U251 cells
Experiment: Immunofluorescence, Aurora-A spindle pole signal intensity, U251
Type: cell-based, Homo sapiens
Conditions: U251, siRNA 48 h or Aurora-A inhibitor 30 min (250 nM)
Description: Drugs were resuspended in DMSO to the stock concentrations indicated in square brackets.
For immunofluorescence, 1 × 10^5 cells were seeded in six-well plates and simultaneously transfected with 60 pmol siRNA duplex and 3 µl transfection reagent diluted in 200 µl Opti-MEM serum-free medium. Growth medium was added to a final volume of 2 ml. For western blotting, 1 × 10^6 cells were seeded in 10 cm dishes and transfected with 300 pmol siRNA duplex and 15 µl transfection reagent diluted in 1000 µl Opti-MEM. Growth medium was added to a final volume of 10 ml. Cells were incubated with siRNA for 48 h prior to fixation or harvesting. As a negative control (siControl) Silencer select negative control No.1 siRNA was transfected as above. For TACC3 depletion, where two siRNA duplexes were used, 40 pmol of each was transfected per well.
For siRNA depletion, 1 × 10^5 cells were seeded in six-well plates and transfected as described above for 48 h prior to fixation. For all other experiments, 2.5 × 10^5 cells were seeded in six-well plates and grown for 24 h before fixation. […] Cells in Fig. EV4A were fixed using 4% (wt/v) paraformaldehyde (PFA) in PBS for 12 min, followed by 10 min quenching in 50 mM NH4Cl in PBS and 5 min of permeabilization with 0.2% (v/v) Triton X-100 in PBS, all at room temperature. For centriole staining in Fig. EV4E, cells were fixed in pre-chilled methanol for 10 min at −20 °C, incubated in PBS for 10 min and then 5 min in 0.5% Triton-X-100, 0.5% Tween, 0.05% SDS in PBS (v/v). To observe centromere and kinetochore staining in Fig. 7C and Appendix Fig. S8A, cells were fixed with PTEMF buffer (20 mM PIPES pH 6.8, 0.2% (v/v) Triton X-100, 10 mM EGTA, 1 mM MgCl2, 4% PFA (wt/v) in PBS) for 12 min at room temperature. For all other experiments, cells were fixed in pre-chilled methanol for 5 min at −20 °C. Following fixation, coverslips were blocked in 2% BSA (wt/v), 0.1% Tween (v/v) in PBS, this and all antibody incubation steps were carried out for 1 h at room temperature, unless otherwise stated. Primary and secondary antibody (Life technologies) dilutions were made in 0.1% Tween, PBS, with secondary staining being conducted in the dark. Coverslips were gently washed with three x 2 ml 0.2% Tween, PBS between antibody incubation steps. […]
Here “area” refers to the area of DAPI-stained DNA, determined by thresholding (default mode) the region of interest. […] The diameter calculated, therefore, refers to that of a circle with equivalent area to the DAPI signal measured previously. The area of the nuclear DAPI signal (Appendix Fig. S6I) was determined by thresholding (as above). […] All fluorescence intensity and area measurements were obtained from maximum intensity z-projections. […]

5′-CGGUAGUGAUAAAAGCUCAtt-3′ [siTPX2]
spindle (pole)-associated Aurora-A level (listed as TPX2 depletion): complete loss of Aurora-A from mitotic spindles
spindle (pole)-associated Aurora-A level (listed as depletion of TPX2): diminished levels of spindle pole-associated Aurora-A

COc1cc(Nc2ncc3c(n2)-c2ccc(Cl)cc2C(c2c(F)cccc2OC)=NC3)ccc1C(=O)O [Alisertib]
spindle (pole)-associated Aurora-A level (listed as Aurora-A inhibition): significant drop

5′-CAAACAACUUGGAAAUCGAtt-3′ [siCEP192]
spindle (pole)-associated Aurora-A level: significant drop
